# Experimental data taken from patent publication US12257224B2, “Methods of administration for highly water-soluble salts of a short acting phenylalkylamine calcium channel blocker” (Milestone Pharmaceuticals Inc., priority 2021, dated 2025).
# How the values were obtained:
# PSVT = assay: Example 2: Phase 3 study of self-administered 70 mg dose for PSVT in an at-home setting; assay type: in vivo, human
# Method: A multi-center, randomized, double-blind, placebo-controlled study to evaluate the efficacy and safety of a 70 mg self-administered dose of compound I in an at-home setting was conducted. […] PSVT episodes were documented by an ambulatory Cardiac Monitoring System (CMS) placed on the chest by the patient or caregiver when symptoms began and were recorded at least 5 hours of continuous electrocardiogram (ECG).
# The primary efficacy endpoint was defined as an adjudicated termination of a positively adjudicated episode of PSVT and conversion to sinus rhythm for at least 30 seconds. The primary efficacy endpoint was evaluated using the time to conversion of an episode of PSVT to sinus rhythm after study drug administration as the primary efficacy variable. The study included a screening visit, a test dose randomization visit, follow-up visits, a treatment period, and a final study visit. Before randomization, all patients received a 70 mg test dose of compound I to evaluate tolerability. The test dose administration took place at the study site under medical supervision while the patient was in sinus rhythm (SR). Patients who passed the test dose were randomized in a 2:1 ratio to 70 mg compound I or placebo. During the treatment period, all randomized patients performed a sequence of steps upon self-identifying symptoms of an episode of PSVT, including contacting a telephone coach for assistance on study procedures, applying a CMS on their chest, performing a vagal maneuver (VM), and study drug self-administration.
# For administration, the patients placed the applicator of the system into their nose. The subject's held the nasal delivery system between the second and third fingers, with the thumb placed on the actuator. […] The subjects then apply pressure to the actuator, which forces the liquid solution containing the dissolved acetate salt of compound I through the device, causing the solution to be released from the tip of the applicator as a spray. The solution was administered to the patients as two single pump spray dosages in order to deliver 70 mg of compound I to the nasal epithelium.
# The presence of an episode of PSVT and termination were evaluated by an independent Adjudication Committee. The Adjudication Committee's evaluations were done using the complete CMS ECG recorded during the patient's PSVT episode.
# subjects in sinus rhythm = assay: Example 4: one vs two 70 mg doses, PR interval and safety; assay type: in vivo, human
# Method: A population of 46 subjects in sinus rhythm received one 70 mg dose of compound I according to the protocol of Example 2, and after several months the dose regimen of 70 mg followed by a repeat same dose of 70 mg 10 minutes later as in the protocol of Example 3.
# Two dose administration followed the same protocol as single dose administration for the initial dose, however 10 minutes after the first 70 mg dose of compound I, a second 70 mg dose of compound I was administered. For the second dose, the patients were allowed to blow their nose to remove any excess fluid build-up immediately prior to self-administration of the second 70 mg dose.
# [1] = Permeation of compound I through the nasal epithelium with EDTA in the formulation
# Description: The nasal vestibule, which accounts for approximately 3-4% of the surface area of the nasal cavity, lacks tight junctions altogether and is thus not affected by calcium chelating agents. […] As such, it has been postulated that the nasal epithelium is not susceptible to permeability modulation by EDTA (Aungst, et al., Pharma. Res., 1998, 5:305-308). Additionally, the ability of EDTA to increase permeation of a compound through the nasal epithelium is attenuated as the molecular weight of the compound increases (Nakanishi, et al., Chem. Pharm. Bull., 1984, 32:1628-1632).
# [2] = one and two 70 mg dose regimens
smiles,measurement,setting,value
"COC(=O)c1cccc(CCN(C)CCCC(C#N)(c2ccc(OC)c(OC)c2)C(C)C)c1 (stereo not shown) [compound I, methyl 3-(2-((4-cyano-4-(3,4-dimethoxyphenyl)-5-methylhexyl)(methyl)amino)ethyl)benzoate]",incidences of severe adverse events or adverse events of interest vs placebo,PSVT; 70 mg,no significant differences
same,median time to conversion,PSVT; 70 mg,25 min
same,most common adverse events,PSVT; 70 mg,"local to the nose, including nasal irritation and congestion"
same,patients converted to SR within 30 minutes after study drug administration,PSVT; 70 mg,54%
same,patient reported treatment satisfaction (TSQM-9),"PSVT; 70 mg vs placebo, secondary endpoint",nominal statistically significant improvements in favor of compound I over placebo
same,"hazard ratio HR (95% CI), time to conversion of PSVT to SR vs placebo","PSVT; 70 mg, 5-hour observation period","1.086 (0.726, 1.623)"
same,safety and tolerability,"PSVT; 70 mg, over 5 hours following treatment, more than 100 patients in PSVT",safe and well tolerated
same,absolute difference in conversion rate vs placebo by 30 minutes,"PSVT; 70 mg, post hoc analysis",~19%
same,AV block,subjects in sinus rhythm; [2],No new AV block was observed
same,lowest systolic blood pressure seen,subjects in sinus rhythm; [2],≥ 99 mmHg
same,severe adverse reactions,subjects in sinus rhythm; [2],No severe adverse reactions were seen
same,increase in PR interval,"subjects in sinus rhythm; repeat 70 mg, second dose 10 minutes after the initial dose",21 ms
same,maximum percentage increase in PR interval,subjects in sinus rhythm; repeat dose of 70 mg,14%
same,duration of PR increase,subjects in sinus rhythm; repeat dose of 70 mg vs single dose of 70 mg,more prolonged
same,increase in PR interval,subjects in sinus rhythm; single 70 mg administration,15 ms
same,maximum percentage increase in PR interval,subjects in sinus rhythm; single 70 mg administration,9%
same,heart rate and systolic blood pressure,subjects in sinus rhythm; single 70 mg dose and two 70 mg doses separated by 10 minutes,remain in normal ranges
same,safety and tolerability,subjects in sinus rhythm; two dose regimen of 70 mg compared to single dose regimen,safe and was well tolerated
same,permeation through the nasal epithelium,[1],increased the permeation of compound I through the nasal epithelium
